Molecules are shown by their SMILES. Some results are limits rather than exact numbers.

As a reminder, the melting point is the temperature, or range, at which the solid turns liquid.

The first data set has as its system Apera spica-venti. Nature of the data set: Test Example 2: spraying treatment on stems and leaves, herbicidal rate. It is filed as in vivo. Particulars: spray amount of 16 g, three weeks later. The protocol:
Emulsion for testing was prepared according to the preparation method described in Test Example 1.
A 150 cm^2 pot was filled with soil, and seeds of Avena sativa, Lolium multiflorum and Apera spica-venti were sowed on the surface layer, and after the soil was covered lightly, the Avena sativa, Lolium multiflorum and Apera spica-venti were grown in a greenhouse. At the point in time when Avena sativa was grown to a plant height of 16 to 20 cm, Lolium multiflorum was grown to a plant height of 10 to 14 cm, and Apera spica-venti was grown to a plant height of 2 to 4 cm, the emulsion for testing was diluted in such a way as to have a predetermined amount of an active ingredient and was sprayed on the leaves and stems in a spray amount of water of 250 L per hectare with a small-sized atomizer.
Three weeks later, the weight of a living weed above the ground was measured for each weed in the nontreated zone and in the treated zone to calculate a herbicidal rate by the following calculation formula.
Herbicidal rate (%)=(weight of living weed above ground in nontreated zone−weight of living weed above ground in treated zone)/(weight of living weed above ground in nontreated zone)×100 […]
As for `O=C(Nc1nnnn1CC(F)(F)F)c1ccc(C(F)(F)F)c2c1CCCS2` [c-6], the “herbicidal activity (Apera spica-venti, follows Table 10)” value is given as not below 80%.

Tested on in the next data set: not given
Assay: not given
Conditions: not given
The molecule `Cc1nnc(NC(=O)c2ccc(C(F)(F)F)c3c2CCC(C)S3)o1` (stereo not drawn) [b-14] had a melting point of 182 to 183 °C. `COC1CSc2c(C(F)(F)F)ccc(C(=O)Nc3nnnn3C)c2C1` (stereo not drawn) [b-9]: the melting point was 168 to 170 °C. On to `CCOC1CS(=O)(=O)c2c(C(F)(F)F)ccc(C(=O)Nc3nnnn3C)c21` (stereo not drawn) [b-1], for which the melting point was in the range of 209 to 211 °C. Consider `COC1Cc2c(C(=O)Nc3nnnn3C)ccc(C(F)(F)F)c2S(=O)(=O)C1` (stereo not drawn) [b-8], for which the melting point was in the range of 226 to 228 °C. On to `COc1ccc(N=S2(=O)CCCc3c(C(=O)Nc4nnnn4C)ccc(C(F)(F)F)c32)cc1` (stereo not drawn) [b-22], for which the melting point was 123 to 124 °C. Molecule `COC1CS(=O)(=O)c2c(C(F)(F)F)ccc(C(=O)Nc3nnc(C)o3)c21` (stereo not drawn) [b-5] yielded a melting point of 206 to 207 °C. For the molecule `Cn1nnnc1NC(=O)c1ccc(C(F)(F)F)c2c1CCCS2(=O)=NC#N` (stereo not drawn) [b-19], the melting point was 151 to 153 °C.

In turn, `CC1CCc2c(C(=O)Nc3nnnn3C)ccc(C(F)(F)F)c2S1(=O)=O` (stereo not drawn) [b-12] showed a melting point of 270 to 271 °C. On to `Cn1nnnc1NC(=O)c1ccc(C(F)(F)F)c2c1C(F)CCS2` (stereo not drawn) [b-11], for which the melting point is 132 to 135 °C. Turning to `Cn1nnnc1NC(=O)c1ccc(C(F)(F)F)c2c1CCCS2` [a-37, N-(1-Methyl-1H-tetrazol-5-yl)-8-(trifluoromethyl)thiochromane-5-carboxamide], the melting point fell in the range of 166 to 167 °C. On the same count and under the same terms, next, `COCC1Cc2c(C(=O)Nc3nnnn3C)ccc(C(F)(F)F)c2S1(=O)=O` (stereo not drawn) [b-2]: 215 to 217 °C; `Cn1nnnc1NC(=O)c1ccc(C(F)(F)F)c2c1CCCS2(=O)=Nc1ccc(Cl)cc1` (stereo not drawn) [b-24]: 113 to 114 °C. `CC1CCc2c(C(=O)Nc3nnnn3C)ccc(C(F)(F)F)c2/S1=N/C#N` (stereo not drawn) [b-21]: the melting point fell in the range of 117 to 120 °C.

Consider `Cn1nnnc1NC(=O)c1ccc(C(F)(F)F)c2c1CCCS2(=O)=Nc1ccccc1` (stereo not drawn) [b-23], for which the melting point lay in the range of 110 to 112 °C.

Consider `Cn1nnnc1NC(=O)c1ccc(C(F)(F)F)c2c1C(F)CCS2(=O)=O` (stereo not drawn) [b-10], for which the melting point lay in the range of 220 to 223 °C. Regarding `Cn1nnnc1NC(=O)c1ccc(C(F)(F)F)c2c1C(O)CS2(=O)=O` (stereo not drawn) [b-3], the melting point lay in the range of 202 to 205 °C. In turn, `Cn1nnnc1NC(=O)c1ccc(C(F)(F)F)c2c1C(Br)CS2(=O)=O` (stereo not drawn) [b-4] gave a melting point of 209 to 211 °C.

Source of the values: patent US20220220099A1, “BENZAMIDE COMPOUND, AND HERBICIDE” (Nippon Soda Co., Ltd., priority 2019, published 2022).
